Measurements: ChEMBL document CHEMBL3885861, “Open TG-GATES”

Species on record: Rattus norvegicus
Assay: Open TG-GATES - Regimen: Single
Type: toxicity, organism-based, Sprague-Dawley
Parameters: regimen Single, gender Male, age 6 weeks
Conditions: in vivo, po, 150 mg/kg, route gavage, dose level High; for APTT / Bas / Eos / Fbg / Hb / Ht / Lym / MCH / MCHC / MCV / Mono / Neu / PT / Plat / RBC / Ret / WBC: tissue Blood; for KIDNEY_L / KIDNEY_R / KIDNEY_TOTAL: tissue Kidney; for LIVER: tissue Liver; for A/G / ALP / ALT / AST / BUN / CRE / Ca / Cl / DBIL / GLC / IP / K / LDH / Na / PL / RALB / TBIL / TC / TG / TP / gamma-GTP: tissue Plasma

Structure (SMILES): S=C=Nc1cccc2ccccc12 [1-NAPHTHYLISOTHIOCYANATE]
- TERMINAL_BW (9 h): 219.4 g
- APTT (9 h): 19.1 s
- Bas (9 h): 0.4%
- Eos (9 h): 0.6%
- Fbg (9 h): 251.8 mg/dL
- Hb (9 h): 14.3 g/dL
- Ht (9 h): 40.2%
- Lym (9 h): 77.6%
- MCH (9 h): 21.9 pg
- MCHC (9 h): 35.7%
- MCV (9 h): 61.4 fL
- Mono (9 h): 3%
- Neu (9 h): 18.4%
- PT (9 h): 12.1 s
- Plat (9 h): 126.7 x10_4/uL
- RBC (9 h): 655.2 x10_4/ul
- Ret (9 h): 7.1%
- WBC (9 h): 81.9 x10_2/uL
- KIDNEY_L (9 h): 1 g
- KIDNEY_R (9 h): 0.9 g
- KIDNEY_TOTAL (9 h): 1.9 g
- LIVER (9 h): 8.7 g
- A/G (9 h): 1.5
- ALP (9 h): 968.6 IU/L
- ALT (9 h): 40 IU/L
- AST (9 h): 63.8 IU/L
- BUN (9 h): 10.2 mg/dL
- CRE (9 h): 0.4 mg/dL
- Ca (9 h): 10.8 mg/dL
- Cl (9 h): 101.8 meq/L
- DBIL (9 h): 0.3 mg/dL
- GLC (9 h): 352.4 mg/dL
- IP (9 h): 10.4 mg/dL
- K (9 h): 4.5 meq/L
- LDH (9 h): 186.8 IU/L
- Na (9 h): 140.8 meq/L
- PL (9 h): 151.4 mg/dL
- RALB (9 h): 3.6 g/dL
- TBIL (9 h): 0.2 mg/dL
- TC (9 h): 83.4 mg/dL
- TG (9 h): 35.6 mg/dL
- TP (9 h): 5.9 g/dL
- gamma-GTP (9 h): 1 IU/L
- TERMINAL_BW (24 h): 214.2 g
- APTT (24 h): 21.2 s
- Bas (24 h): 0.6%
- Eos (24 h): 0.2%
- Fbg (24 h): 392.4 mg/dL
- Hb (24 h): 14.7 g/dL
- Ht (24 h): 38.5%
- Lym (24 h): 43%
- MCH (24 h): 21.6 pg
- MCHC (24 h): 38.2%
- MCV (24 h): 56.4 fL
- Mono (24 h): 5.6%
- Neu (24 h): 49.6%
- PT (24 h): 12.8 s
- Plat (24 h): 145.8 x10_4/uL
- RBC (24 h): 682.8 x10_4/ul
- Ret (24 h): 6%
- WBC (24 h): 79 x10_2/uL
- KIDNEY_L (24 h): 0.9 g
- KIDNEY_R (24 h): 0.9 g
- KIDNEY_TOTAL (24 h): 1.9 g
- LIVER (24 h): 8.6 g
- A/G (24 h): 1.3
- ALP (24 h): 1505.2 IU/L
- ALT (24 h): 131.6 IU/L
- AST (24 h): 349.2 IU/L
- BUN (24 h): 11.2 mg/dL
- CRE (24 h): 0.5 mg/dL
- Ca (24 h): 10.4 mg/dL
- Cl (24 h): 96.8 meq/L
- DBIL (24 h): 1.5 mg/dL
- GLC (24 h): 190.8 mg/dL
- IP (24 h): 9.2 mg/dL
- K (24 h): 3.8 meq/L
- LDH (24 h): 601.8 IU/L
- Na (24 h): 142.2 meq/L
- PL (24 h): 268 mg/dL
- RALB (24 h): 3.3 g/dL
- TBIL (24 h): 1.7 mg/dL
- TC (24 h): 129.6 mg/dL
- TG (24 h): 64.2 mg/dL
- TP (24 h): 5.8 g/dL
- gamma-GTP (24 h): 7.4 IU/L
